According to ChEMBL document CHEMBL1201862, “PubChem BioAssay data set” (2004):
Calls of active or inactive are those of the source.

Assays:
[1] = Luminescence Cell-Based Dose Confirmation HTS to Identify Activators of 5'UTR Stem-Loop Driven Alpha-Synuclein mRNA Translation in H4 Neuroglioblastoma Cells. [Related pubchem assays: 1829 (Project Summary), 1814 (Primary HTS)]; type: functional
[2] = system: H4; experiment: Luminescence Cell-Based Dose Response HTS to Identify Activators of 5'UTR Stem-Loop Driven Prion Protein mRNA Translation in H4 Neuroglioblastoma Cells. [Related pubchem assays: 1829 (Project Summary), 1814 (Primary HTS)]; type: functional; details: Homo sapiens
[3] = target: Nonstructural protein 1 (Influenza A virus, UniProt Q194T2); type: functional, Influenza A virus (A/California/07/2009(H1N1))
Chain of Nonstructural protein 1 (Q194T2 whole entry): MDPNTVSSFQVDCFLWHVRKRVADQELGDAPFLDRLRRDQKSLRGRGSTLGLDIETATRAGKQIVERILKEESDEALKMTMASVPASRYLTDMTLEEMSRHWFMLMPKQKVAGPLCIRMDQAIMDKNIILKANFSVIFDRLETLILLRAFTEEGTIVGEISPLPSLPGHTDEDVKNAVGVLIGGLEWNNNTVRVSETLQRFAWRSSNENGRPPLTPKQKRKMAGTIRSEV

[4] = Luminescence Cell-Based Dose Response HTS to Identify Activators of Luciferase Translation or Activity in H4 […] Cells. [Related pubchem assays: 1829 (Project Summary), 1814 (Primary HTS)]; type: functional
[5] = HEK-293T viability loss after treatment – luminescence, T-cell screen hits, cytotoxicity control for TCR NF-kB inhibitor project, dose response (AID 489026); type: functional, cell-based;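 further: cells exposed to compound about 14 hours before the viability readout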
[6] = target: T1, Aminopeptidase N (Plasmodium falciparum FcB1/Columbia, UniProt O96935); experiment: malaria alanyl aminopeptidase activity blockers – biochemical, fluorogenic H-Leu-NHMec substrate, 1536-well (AID 1445); parameters: species or system Plasmodium falciparum 3D7, 3D7
T1 sequence (O96935 whole entry): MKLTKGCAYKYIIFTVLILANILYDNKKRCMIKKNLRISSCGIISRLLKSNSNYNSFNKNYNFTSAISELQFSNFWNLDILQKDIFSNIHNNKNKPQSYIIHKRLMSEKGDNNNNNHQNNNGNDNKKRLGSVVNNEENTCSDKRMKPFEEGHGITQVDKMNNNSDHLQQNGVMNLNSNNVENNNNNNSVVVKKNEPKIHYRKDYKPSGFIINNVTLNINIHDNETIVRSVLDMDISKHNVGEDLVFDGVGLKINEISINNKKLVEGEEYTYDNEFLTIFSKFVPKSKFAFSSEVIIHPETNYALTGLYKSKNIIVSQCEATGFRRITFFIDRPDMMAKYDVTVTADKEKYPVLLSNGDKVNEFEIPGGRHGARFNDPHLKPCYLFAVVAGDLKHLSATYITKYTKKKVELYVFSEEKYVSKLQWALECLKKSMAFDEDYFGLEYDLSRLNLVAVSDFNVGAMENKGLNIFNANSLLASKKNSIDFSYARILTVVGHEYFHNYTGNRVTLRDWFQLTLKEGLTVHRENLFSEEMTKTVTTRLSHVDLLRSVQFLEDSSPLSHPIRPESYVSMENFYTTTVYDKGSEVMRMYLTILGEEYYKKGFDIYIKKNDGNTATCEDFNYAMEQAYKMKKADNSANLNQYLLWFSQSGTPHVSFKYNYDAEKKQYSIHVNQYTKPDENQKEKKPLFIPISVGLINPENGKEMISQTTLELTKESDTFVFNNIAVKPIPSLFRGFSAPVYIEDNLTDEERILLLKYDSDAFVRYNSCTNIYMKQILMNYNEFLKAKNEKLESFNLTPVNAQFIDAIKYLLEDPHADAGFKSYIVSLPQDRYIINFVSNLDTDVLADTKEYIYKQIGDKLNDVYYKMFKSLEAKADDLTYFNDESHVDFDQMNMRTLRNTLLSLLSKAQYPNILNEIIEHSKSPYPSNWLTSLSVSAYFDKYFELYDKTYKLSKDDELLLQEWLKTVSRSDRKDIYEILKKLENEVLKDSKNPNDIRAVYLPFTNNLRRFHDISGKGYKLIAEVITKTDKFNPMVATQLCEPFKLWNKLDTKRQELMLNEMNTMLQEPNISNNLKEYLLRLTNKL

[7] = target: T2, High affinity choline transporter 1 (Homo sapiens, UniProt Q9GZV3); experiment: human choline transporter blockers, potency – cell-based, 5-point CRC, membrane potential dye, dose response (AID 504840); type: functional
T2 sequence (Q9GZV3 whole entry): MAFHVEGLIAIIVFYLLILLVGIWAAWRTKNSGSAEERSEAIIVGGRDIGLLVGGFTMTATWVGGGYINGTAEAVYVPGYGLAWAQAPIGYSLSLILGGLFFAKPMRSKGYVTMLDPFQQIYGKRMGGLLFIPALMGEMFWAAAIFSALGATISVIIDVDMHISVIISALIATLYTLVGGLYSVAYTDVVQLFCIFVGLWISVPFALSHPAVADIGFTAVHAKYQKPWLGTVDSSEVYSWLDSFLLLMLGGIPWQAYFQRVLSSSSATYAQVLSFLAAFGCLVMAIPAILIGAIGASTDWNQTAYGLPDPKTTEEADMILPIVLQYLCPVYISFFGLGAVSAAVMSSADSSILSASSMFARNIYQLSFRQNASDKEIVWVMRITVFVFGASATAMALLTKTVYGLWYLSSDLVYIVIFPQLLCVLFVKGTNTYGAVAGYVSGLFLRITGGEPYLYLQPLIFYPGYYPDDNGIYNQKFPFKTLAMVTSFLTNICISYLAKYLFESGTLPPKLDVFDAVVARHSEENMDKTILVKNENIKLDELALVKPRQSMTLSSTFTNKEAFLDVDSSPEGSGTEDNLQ

[8] = target: T3, RNA-binding protein pos-1 (Caenorhabditis elegans, UniProt G5EF15); experiment: disruptors of C. elegans POS-1 RNA interaction – biochemical, fluorescence polarization, dose response (AID 1964);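 further: purified POS-1 fused to maltose binding protein made in E. coli; potency of compounds blocking POS-1 binding to fluorescent RNA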
T3 sequence (G5EF15 whole entry): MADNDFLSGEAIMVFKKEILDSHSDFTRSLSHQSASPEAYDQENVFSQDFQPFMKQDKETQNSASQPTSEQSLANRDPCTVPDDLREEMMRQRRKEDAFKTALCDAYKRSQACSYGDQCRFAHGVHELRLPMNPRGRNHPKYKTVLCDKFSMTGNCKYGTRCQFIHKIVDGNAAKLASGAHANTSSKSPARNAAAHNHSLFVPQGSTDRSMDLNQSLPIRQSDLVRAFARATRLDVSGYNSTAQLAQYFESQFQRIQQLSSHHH

[9] = A Cell Based Secondary Assay To Explore Cytotoxicity of Compounds that Sensitize Mycobacterium Tuberculosis to Beta-Lactam Antibiotics.; type: functional
[10] = target: T4, Zinc finger protein mex-5 (Caenorhabditis elegans, UniProt Q9XUB2); experiment: potency of MEX-5 RNA-binding blockers – biochemical, C. elegans, fluorescence polarization, dose response (AID 1960)
T4 sequence (Q9XUB2 whole entry): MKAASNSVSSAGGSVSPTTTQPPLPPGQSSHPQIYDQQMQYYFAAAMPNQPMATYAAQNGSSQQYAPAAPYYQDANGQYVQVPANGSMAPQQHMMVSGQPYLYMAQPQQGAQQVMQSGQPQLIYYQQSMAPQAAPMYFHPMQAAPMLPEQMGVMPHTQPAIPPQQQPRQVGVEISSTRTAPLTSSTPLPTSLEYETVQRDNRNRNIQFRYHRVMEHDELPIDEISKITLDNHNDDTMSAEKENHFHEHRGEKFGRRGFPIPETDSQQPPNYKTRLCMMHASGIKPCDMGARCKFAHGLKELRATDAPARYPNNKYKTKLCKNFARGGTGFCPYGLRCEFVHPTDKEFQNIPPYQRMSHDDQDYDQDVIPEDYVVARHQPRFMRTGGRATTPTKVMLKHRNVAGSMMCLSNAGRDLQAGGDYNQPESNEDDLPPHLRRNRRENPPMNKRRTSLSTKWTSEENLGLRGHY

[11] = target: Glucose-6-phosphate 1-dehydrogenase (Homo sapiens, UniProt P11413); experiment: inhibition of Homo sapiens G6PD, dose series – biochemical, fluorescence, selectivity assay for P. falciparum G6PD inhibitor project, dose response (AID 504792); type: functional
Chain of Glucose-6-phosphate 1-dehydrogenase (P11413 whole entry): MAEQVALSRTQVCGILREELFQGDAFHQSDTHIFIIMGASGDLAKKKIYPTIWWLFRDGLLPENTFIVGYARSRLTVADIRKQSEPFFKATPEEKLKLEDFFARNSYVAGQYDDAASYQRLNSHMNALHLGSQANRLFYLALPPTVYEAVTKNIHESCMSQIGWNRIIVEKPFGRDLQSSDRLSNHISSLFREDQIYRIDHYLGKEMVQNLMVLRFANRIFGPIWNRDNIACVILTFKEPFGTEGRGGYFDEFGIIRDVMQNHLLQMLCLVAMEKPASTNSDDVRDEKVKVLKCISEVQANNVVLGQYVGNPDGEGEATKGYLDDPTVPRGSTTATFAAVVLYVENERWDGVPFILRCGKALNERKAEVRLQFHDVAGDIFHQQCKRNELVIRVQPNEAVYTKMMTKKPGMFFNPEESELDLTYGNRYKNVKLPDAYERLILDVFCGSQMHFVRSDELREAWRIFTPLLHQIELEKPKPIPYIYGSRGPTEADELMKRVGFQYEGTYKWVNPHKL

[12] = viability of HCT116 lacking mutant beta-catenin – cell-based, human colon tumor, dose response (AID 1045); type: functional;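 further: HCT116 colon tumor cells with beta catenin knocked out; cells exposed to compound for 60 hours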
[13] = viability of PTEN-deleted HCT116 cells – cell-based, HCT116 PTEN knockout, dose response (AID 1047); type: functional;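 further: HCT116 colon tumor cells with PTEN knocked out; cells exposed to compound for 60 hours before readout; potency for loss of cell viability measured by luminescence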
[14] = target: Induced myeloid leukemia cell differentiation protein Mcl-1 (Homo sapiens, UniProt Q07820); type: functional
Chain of Induced myeloid leukemia cell differentiation protein Mcl-1 (Q07820 whole entry): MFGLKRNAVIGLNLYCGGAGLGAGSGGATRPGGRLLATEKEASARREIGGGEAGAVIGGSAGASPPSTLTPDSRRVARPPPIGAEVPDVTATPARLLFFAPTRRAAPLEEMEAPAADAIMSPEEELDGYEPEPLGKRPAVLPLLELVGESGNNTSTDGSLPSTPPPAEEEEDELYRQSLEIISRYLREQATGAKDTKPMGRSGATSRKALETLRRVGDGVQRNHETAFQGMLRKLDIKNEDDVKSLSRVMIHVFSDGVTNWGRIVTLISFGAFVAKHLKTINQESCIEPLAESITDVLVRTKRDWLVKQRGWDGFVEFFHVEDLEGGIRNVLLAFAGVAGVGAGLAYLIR

[15] = cells; type: functional
[16] = target: T5, Microphthalmia-associated transcription factor (Homo sapiens, UniProt O75030); experiment: reducers of TRPM1 reporter luminescence, concentration series – cell-based, SK-MEL-5, cherry-picked, set 3, MITF inhibitor project, dose response (AID 493073); type: functional;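 further: SK-MEL-5 melanoma cells with luciferase driven by the MITF target TRPM1 promoter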
T5 sequence (O75030 whole entry): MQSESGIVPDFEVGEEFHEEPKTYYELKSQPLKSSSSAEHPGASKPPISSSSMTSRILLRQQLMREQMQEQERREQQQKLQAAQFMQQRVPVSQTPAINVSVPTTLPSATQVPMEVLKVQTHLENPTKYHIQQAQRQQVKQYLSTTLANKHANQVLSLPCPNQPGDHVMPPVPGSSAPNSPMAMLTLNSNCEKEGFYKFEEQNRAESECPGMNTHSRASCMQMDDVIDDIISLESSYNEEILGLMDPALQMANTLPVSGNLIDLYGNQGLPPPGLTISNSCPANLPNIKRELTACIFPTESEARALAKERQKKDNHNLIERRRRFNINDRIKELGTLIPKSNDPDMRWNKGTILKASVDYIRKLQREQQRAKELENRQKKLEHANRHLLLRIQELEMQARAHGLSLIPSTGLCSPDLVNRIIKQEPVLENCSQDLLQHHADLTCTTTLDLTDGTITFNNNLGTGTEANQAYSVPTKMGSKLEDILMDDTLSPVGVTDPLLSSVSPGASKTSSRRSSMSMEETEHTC

[17] = target: T6, Heat shock factor protein 1 (Mus musculus, UniProt P38532); experiment: decrease of HSF1-responsive luciferase luminescence – cell-based, NIH3T3, dose retest, confirmation (AID 2382); type: functional;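 further: NIH3T3 fibroblasts with HSF1-driven luciferase reporter stressed by proteasome inhibitor MG132; luminescence from HSF1-driven luciferase expression after 8 hours of MG132 stress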
T6 sequence (P38532 whole entry): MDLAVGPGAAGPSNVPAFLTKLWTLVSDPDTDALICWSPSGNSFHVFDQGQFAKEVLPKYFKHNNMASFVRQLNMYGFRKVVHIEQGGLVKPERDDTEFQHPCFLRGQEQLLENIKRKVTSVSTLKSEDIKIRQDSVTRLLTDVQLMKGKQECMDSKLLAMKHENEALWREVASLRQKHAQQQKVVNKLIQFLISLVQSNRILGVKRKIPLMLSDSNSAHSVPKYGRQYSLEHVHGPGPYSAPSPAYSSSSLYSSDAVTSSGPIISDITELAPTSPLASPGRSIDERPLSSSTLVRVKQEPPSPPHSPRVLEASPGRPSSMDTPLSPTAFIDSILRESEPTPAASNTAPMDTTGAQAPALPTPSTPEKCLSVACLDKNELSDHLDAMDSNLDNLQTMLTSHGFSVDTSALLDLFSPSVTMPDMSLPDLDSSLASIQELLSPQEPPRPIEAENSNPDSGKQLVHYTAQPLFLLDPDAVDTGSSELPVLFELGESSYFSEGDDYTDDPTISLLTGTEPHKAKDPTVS

[18] = target: T7, Long-chain-fatty-acid--AMP ligase FadD28 (Mycobacterium tuberculosis, UniProt P9WQ59); experiment: Fluorescence polarization aasay to screen for inhibitors that compete for the binding of FadD28 to a bisubstrate Measured in Biochemical System Using Plate Reader - 2147-01_Inhibitor_Dose_CherryPick_Activity.; type: functional, Mycobacterium tuberculosis H37Rv
T7 sequence (P9WQ59 whole entry): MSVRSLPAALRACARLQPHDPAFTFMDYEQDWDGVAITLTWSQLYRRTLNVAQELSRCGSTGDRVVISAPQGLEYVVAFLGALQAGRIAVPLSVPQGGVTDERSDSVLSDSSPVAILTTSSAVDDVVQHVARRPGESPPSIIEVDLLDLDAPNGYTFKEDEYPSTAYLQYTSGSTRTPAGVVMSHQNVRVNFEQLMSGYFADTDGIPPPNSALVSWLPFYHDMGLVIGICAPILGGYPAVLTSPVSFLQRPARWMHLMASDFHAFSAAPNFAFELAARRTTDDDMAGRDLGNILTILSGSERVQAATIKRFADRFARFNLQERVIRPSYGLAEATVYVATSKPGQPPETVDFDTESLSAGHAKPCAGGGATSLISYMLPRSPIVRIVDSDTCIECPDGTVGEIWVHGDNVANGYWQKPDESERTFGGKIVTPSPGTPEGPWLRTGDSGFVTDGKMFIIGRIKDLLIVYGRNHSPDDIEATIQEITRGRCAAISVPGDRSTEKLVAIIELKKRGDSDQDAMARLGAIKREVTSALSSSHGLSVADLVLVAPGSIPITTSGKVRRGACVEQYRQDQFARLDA

## CCCN1C(=O)/C(=C2\SC(N3CCCCC3)=NC2=O)c2ccccc21
[1]
  EC50: 15.2 µM (active)
[2]
  EC50: > 120 µM (not active)
[3]
  IC50: 28.5 µM (active)
[4]
  EC50: 64.2 µM (active)

## COc1cc(-c2noc(C)c2-c2ccc3[nH]ccc3c2)cc(OC)c1OC
[5]
  IC50: 32.5 µM (inactive)

## CCCC(C)C1(CC)C(=O)N=C(Nc2ccccc2OC)NC1=O (stereo unspecified)
[6]
  IC50: 52.1 µM (active)

## COc1ccc(/C=C2\SC(=S)N(C(C(=O)O)c3ccccc3)C2=O)c(OC)c1 (stereo unspecified)
[6]
  IC50: 21.9 µM (active)

## CCn1c(SCc2nc(-c3ccc(Cl)cc3)no2)nnc1-c1ccco1
[7]
  IC50: 15.2 µM (active)

## CN(C)CCCN(C(=O)/C=C/c1cccs1)c1nc2ccc(F)cc2s1
[8]
  EC50: > 300 µM (not active)
[9]
  CC50: 12.4 µM (active)
[10]
  EC50: > 300 µM (not active)

## COCc1cc(O)n2nc(C(C)(C)C)cc2n1
[11]
  IC50: > 80 µM (inactive)

## O=C(Nc1ccc2oc(-c3ccc(Cl)c(Cl)c3)nc2c1)c1nc[nH]n1
[12]
  EC50: 4.31 µM (active)
[9]
  CC50: 16.4 µM (active)
[13]
  EC50: 3.34 µM (active)

## Cc1ccc(N2C(=O)/C(=C\NNc3ccc(S(=O)(=O)N4CCOCC4)cc3[N+](=O)[O-])c3ccccc3C2=O)c(C)c1
[14]
  IC50: 1.8 µM (not active)
[3]
  IC50: 8.94 µM (active)
[7]
  IC50: 12.3 µM (active)

## O=C(Nc1nc2ccccc2n1CCN1CCCC1)C1CCCCC1
[15]
  IC50: 46.9 µM (active)
[9]
  CC50: > 40 µM (active)

## CC(C)c1ccc(/C=N/Nc2ccc(C(=O)O)cc2)cc1
[16]
  AC50: 3.53 µM (active)
[5]
  IC50: > 80 µM (inactive)
[17]
  EC50: < 0.16 µM (active)

## COc1cc(/C=N/NC(=O)C(Cc2c[nH]c3ccccc23)NC(=O)OCC(C)C)cc([N+](=O)[O-])c1O (stereo unspecified)
[6]
  IC50: 16.7 µM (active)
[18]
  AC50: 65.6 µM (active)

## CC/C(=C(/CC)c1ccc(O)cc1)c1ccc(O)cc1 [DIETHYLSTILBESTROL]
[7]
  IC50: 12.6 µM (active)
